Test results from article PMC12381781, “Structural and functional insights into the selective inhibition of mutant tau aggregation by purpurin and oleocanthal in frontotemporal dementia” (Protein Science : A Publication of the Protein Society, 2025).
“Also recorded” adds a separate entry of the source.

Columns and labels:
[1] = system: preformed R2R3 (P301L) fibrils; assay: Elongation of preformed R2R3 (P301L) fibrils, ThT; assay type: biochemical; conditions: R2R3 P301L pre-aggregated 24 h, compound 10 μM; for fibril elongation, aggregation post-treatment as percentage of control (AUC after compound addition): further 24–30 h; for ThT-stained aggregates from post-treatment samples, confocal imaging: further 24 h
Protocol: Peptides were pre‐aggregated for 24 h with aggregation kinetics monitored by ThT fluorescence, after which 10 μM PUR or OLC was added, followed by an additional 24–30 h of incubation (Figure 4a). Aggregation kinetics was monitored by ThT fluorescence, and elongation was quantified as the AUC following compound addition, normalized to each replicate's maximum pre‐treatment fluorescence (Figure 4b). […] WT peptide fibril elongation was reduced to 15.5 ± 2.8% (PUR) and 45.2 ± 3.2% (OLC), and P301L peptide fibril elongation was limited to 31.8 ± 0.6% (PUR) and 85.6 ± 2.2% (OLC) (Figure 4b). Fluorescence microscopy imaging further confirmed the presence of reduced ThT‐positive aggregates following the addition of PUR and OLC (Figure S12). Similar inhibition trends, with PUR outperforming OLC, were also observed for V287I and N279K peptides (Figure S12).
FIGURE 4 Purpurin (PUR) and oleocanthal (OLC) inhibit elongation of preformed wild‐type (WT) and P301L tau fibrils. (a) The thioflavin T (ThT) fluorescence kinetics of pre‐aggregated R2R3 (WT and P301L) tau peptides treated with PUR or OLC (10 μM). Peptides were first allowed to aggregate for 24 h, followed by compound addition and continued incubation for an additional 24–30 h. Vertical dashed lines indicate the time point of compound addition. Curves are normalized to each replicate's maximum pre‐treatment ThT fluorescence. Source data are provided in the Data Availability Statement section. Mean ± SEM (n ≥ 3). (b) Aggregation levels post‐treatment, expressed as a percentage of control (untreated fibrils), calculated from the area under the curve after compound addition. Mean ± SEM (n ≥ 3). ***p < 0.001, **p < 0.01, one‐way ANOVA (Tukey's post hoc test).
Figure S12. Confocal imaging of ThT-stained aggregates from post-treatment samples in Figure 4. R2R3 (WT and P301L) tau peptides were incubated for 24 h to allow initial aggregation, followed by the addition of PUR or OLC (10 µM). After a further 24 h, reaction mixtures from compound-treated wells were collected, embedded in 0.05% low-melting agarose, and processed for imaging as described in Figure S11. […] Scale bar: 50 μm.

[2] = system: Tau RD P301S FRET Biosensor cells; assay: Biosensor cell seeding assay, post-transduction treatment; assay type: cell-based; conditions: for concentrations at which seeding was significantly reduced, post-transduction treatment: P301L fibrils transduced 24 h, then compound for 24 h; for seeding (CFP/YFP inclusions) after post-transduction treatment: WT fibrils transduced 24 h, then compound 0 to 10 μM for 24 h
Protocol: To further evaluate whether PUR and OLC can suppress pathological tau propagation, we performed post‐transduction treatment assays in Tau RD P301S FRET Biosensor cells. WT or P301L tau fibrils were first transduced into cells for 24 h, followed by treatment with PUR or OLC for an additional 24 h. Prior MTS assays confirmed that these concentrations were non‐toxic to biosensor cells (Figure S16).
Tau peptides were aggregated with or without PUR or OLC in a 7.4 pH aggregation buffer without ThT. After 48 h, the contents of each well were pooled to a final total volume of 120 μL. The concentration of the pooled Aggregation Reaction Products was measured using the Pierce™ BCA Protein Assay Kit (Thermo Fisher Scientific Inc., Cat. # 23225). The reaction products were standardized for cell transduction to a final concentration of 100 nM for both control and drug‐treated samples. The pooled aggregation mixture was sonicated using a Branson Ultrasonic™ Sonifier Cup Horns (Marshall Scientific, Hampton, NH, USA) at 30% amplitude (15 s ON and 15 s OFF for 1 min) to fragment larger aggregates into smaller ones, facilitating consistent transduction.
Tau RD P301S FRET Biosensor cells were plated at 5 × 10^3 cells per well in PhenoPlate 384‐well, black, optically clear flat‐bottom plates (Revvity; Part # 6057302) pre‐coated with 50 μg/mL Poly‐ᴅ‐Lysine (Sigma‐Aldrich, Cat. # P6407). After plating, cells were incubated for 30 min at room temperature to promote better cell spreading before returning the plates to the incubator.
The next day, cells were transduced with 100 nM of aggregation mixture, which were either: (i) prepared in the absence (control) or presence of 10 μM PUR or OLC for co‐aggregation studies (Figure 5), or (ii) prepared exclusively in the absence of compounds for post‐transduction treatment studies (Figure 6). The aggregation mixtures were premixed with 0.2 μL per well TurboFect™ Transfection Reagent (Thermo Fisher Scientific Inc., Cat. # R0533) in 10 μL Opti‐MEM™ (Thermo Fisher Scientific Inc., Cat. #11058021) and added to cells.
For co‐aggregation studies (Figure 5), cells were cultured for 48 h after transduction before processing for imaging. […]
Cells were imaged on a Cell Voyager 7000S high‐content imaging system (Yokogawa, Tokyo, Japan) with a 20× objective. CFP/YFP inclusions of seeded tau were detected using a 488 nm laser line (Ex = 460–490 nm, Em = 500–550 nm), and Hoechst‐stained nuclei were detected using a 405 nm laser line (Ex = 360–400 nm, Em = 410–480 nm). […] Image analysis was performed using Signals Image Artist (Revvity) to quantify the number of cells (Hoechst‐stained nuclei) and intracellular CFP/YFP inclusions. […]

Tau Biosensor cells = assay: MTS cytotoxicity assay, Tau Biosensor cells; assay type: cell-based; conditions: 0-100 µM, 72 h
Protocol: Figure S16. Cytotoxic activity of PUR and OLC. Tau Biosensor and CCRF-CEM (human leukemic lymphoblast) cells were treated with increasing concentrations (0-100 µM) of PUR and OLC for 72 h. Cell viability was then assessed using the MTS assay. CCRF-CEM (human leukemic lymphoblasts) cells, known for their high sensitivity to cytotoxic agents ^1, were used as positive controls. […] Calculated IC50 values are indicated in the graphs. Mean ± SEM (n = 3).

SMILES	fibril elongation, aggregation post-treatment as percentage of control (AUC after compound addition) [1] [%]	ThT-stained aggregates from post-treatment samples, confocal imaging [1]	concentrations at which seeding was significantly reduced, post-transduction treatment [2] [µM]	seeding (CFP/YFP inclusions) after post-transduction treatment [2]	cytotoxicity, cell viability (MTS) (Tau Biosensor cells)
C/C=C(/C=O)[C@@H](CC=O)CC(=O)OCCc1ccc(O)cc1 [OLC, oleocanthal]	85.6 ± 2.2	either a complete absence or a marked reduction in ThT signal	≥ 1.25	significantly reduced seeding at all tested concentrations	neither PUR nor OLC was cytotoxic; also recorded: non‐toxic
O=C1c2ccccc2C(=O)c2c(O)c(O)cc(O)c21 [PUR, purpurin]	31.8 ± 0.6	either a complete absence or a marked reduction in ThT signal	≥ 1.25	significantly reduced seeding at all tested concentrations	neither PUR nor OLC was cytotoxic; also recorded: non‐toxic
